Entries after “also recorded” stand apart in the source; their conditions may differ. Bridges are numbered along the chain shown (N, C = ends). Where no end group is shown, it is not given here.
Legend:
[1] = test system: classical pathway C5b deposition (complement C5); assay: Classical pathway C5b deposition ELISA; type: biochemical, human; conditions: n=3 (K8: n=6), ND* = Not detected
Excerpt: Figure 1. Functional modulation of C5 via knob domain peptides. […] Following activation of C1q via antibody Fc, C4 and C2 are cleaved and form C4bC2a (the CP C3 convertase) which cleaves C3 into C3a (not shown) and C3b. At high C3b concentrations, C4bC2aC3b (the CP […]) forms and cleaves C5 into C5a and C5b. C5b associates with C6 and forms the membrane attack complex (MAC) with C7, C8, and multiple copies of C9. […] In the presence of factor B and factor D, C3bBb (the AP C3 convertase) generates additional C3b, prompting formation of C3bBbC3b (the AP C5 convertase), which cleaves C5 into C5a and C5b, driving MAC formation. CP-driven ELISAs (C) and AP-driven ELISAs (D) are shown. For both pathways, the inhibition of C3d (the surface-associated domain of C3b, which is upstream of C5 inhibition), C5a release, and C5b neo-epitope formation and C9 deposition were tracked within the MAC. […] For the AP assays, 5% serum (v/v) gives a putative C5 concentration of 20 nM. For the CP assays, 1% serum (v/v) gives a putative C5 concentration of 4 nM, based on a reported C5 serum concentration of 397 nM/75 µg/mL ([Sjöholm, 1975]).
For the C5b ELISA, assays were run using the CP and AP Complement functional ELISA kits (Svar Life Science, Malmö, Sweden). For sample preparation, serum was diluted as per the respective protocol for the CP and AP assays. […]

[2] = test system: classical pathway mediated C9 deposition; assay: Inhibition of classical pathway mediated C9 deposition (ELISA); type: biochemical, human; conditions: CP C9 deposition; 1% serum; n=3; ND* = Not detected
Procedure: For the C3 and C9 ELISAs, microtiter plates (MaxiSorp; Nunc) were incubated overnight at 4°C with 50 µL of a solution of in 75 mM sodium carbonate (pH 9.6) containing either 2.5 µg/mL aggregated human IgG (Sigma-Aldrich, Gillingham, UK) for CP or 20 µg/mL zymosan (Sigma-Aldrich, Gillingham, UK) for AP. As a negative control, wells were coated with 1% (w/v) bovine serum albumin (BSA)/PBS. Microtiter plates were washed four times with 250 µL of wash buffer (50 mM Tris-HCl), 150 mM NaCl and 0.1% Tween 20 (pH 8) between each step of the procedure. Wells were blocked using 250 µL of 1% (w/v) BSA/PBS for 2 hr at room temperature. […] Complement activation was assessed through detection of deposited complement activation factors using specific antibodies against C3b (rat anti-human C3d HM2198, Hycult, Uden, The Netherlands) and C9 (goat anti-human C9, A226, Complement Technologies Tyler, TX) at a 1:1000 dilution. Bound primary antibodies were detected with […]-conjugated goat anti-rat (ab97057, Abcam, Cambridge, UK) or rabbit anti-goat (P0449, Agilent Dako, Santa Clara, CA) secondary antibodies at a 1:1000 dilution. Bound HRP-conjugated antibodies were detected using TMB One solution (Eco-TEK – manufactured by Bio-TEK, Winooski, VT) with absorbance measured at 450 nm. […]

[3] = test system: rabbit erythrocytes (alternative pathway haemolysis); assay: Inhibition of alternative pathway haemolysis; type: cell-based, rabbit erythrocytes; normal human serum; conditions: 4.5% serum
Procedure: GVB^++ or Mg EGTA buffers, which had been supplemented with 2.5% glucose (w/v), were used for the CP and AP assays, respectively. For the AP, 150 µL of rabbit erythrocytes (TCS Biosciences, Botolph Claydon, UK) were washed twice, by addition of 1 mL of buffer and centrifugation at 800 ×g for 1 min, and finally resuspended in 500 µL of buffer. For the CP, 150 µL sheep erythrocytes (TCS Biosciences, Botolph Claydon, UK) were washed twice with 1 mL of buffer and sensitised with a 1/1000 dilution of rabbit anti-sheep red blood cell stroma antibody (S1389, Sigma Aldrich, Gillingham, UK). After a 30°C/30 min incubation, with shaking, the cells were rewashed and resuspended with 500 µL of buffer. Serial dilutions of peptide were prepared in the respective buffers and normal human serum was added at 1% for the CP and 4.5% for the AP (corresponding to CH50 of the serum). Also, 90 µL of peptide–serum mixtures were plated into a V-bottom 96-well microtiter plate (Corning) and 10 µL of erythrocytes were added. Plates were incubated for 30 min at 37°C, with shaking. Finally, 50 µL of buffer was added, the plates centrifuged at 800 ×g, and 80 µL of supernatant was transferred to an ELISA plate (Nunc) and absorbance measured at 405 nm.
Table 1.8. Inhibition of alternative pathway haemolysis.

C3b deposition = C3b deposition ELISA (CP and AP); type: biochemical; conditions: CP (1% serum) and AP (5% serum) ELISA, anti-human C3d
Procedure: For the C3 and C9 ELISAs, microtiter plates (MaxiSorp; Nunc) were incubated overnight at 4°C with 50 µL of a solution of in 75 mM sodium carbonate (pH 9.6) containing either 2.5 µg/mL aggregated human IgG (Sigma-Aldrich, Gillingham, UK) for CP or 20 µg/mL zymosan (Sigma-Aldrich, Gillingham, UK) for AP. As a negative control, wells were coated with 1% (w/v) bovine serum albumin (BSA)/PBS. Microtiter plates were washed four times with 250 µL of wash buffer (50 mM Tris-HCl), 150 mM NaCl and 0.1% Tween 20 (pH 8) between each step of the procedure. Wells were blocked using 250 µL of 1% (w/v) BSA/PBS for 2 hr at room temperature. […] Complement activation was assessed through detection of deposited complement activation factors using specific antibodies against C3b (rat anti-human C3d HM2198, Hycult, Uden, The Netherlands) and C9 (goat anti-human C9, A226, Complement Technologies Tyler, TX) at a 1:1000 dilution. Bound primary antibodies were detected with […]-conjugated goat anti-rat (ab97057, Abcam, Cambridge, UK) or rabbit anti-goat (P0449, Agilent Dako, Santa Clara, CA) secondary antibodies at a 1:1000 dilution. Bound HRP-conjugated antibodies were detected using TMB One solution (Eco-TEK – manufactured by Bio-TEK, Winooski, VT) with absorbance measured at 450 nm.

SVCPDGFDWGYGCAAGSSRFCTRHDWCCYDERADSHTYGFCTGNRVENLYFQ (disulfide 3-28, 13-21, 27-41) [K8]
Average Emax ([1]; CP C5b ELISA, preincubated 15 min RT): 68.2%
IC50 ([1]; CP functional ELISA kit (Svar), peptide preincubated with human serum 15 min RT, CP 1% serum, putative 4 nM C5, read-out: Geomean IC50): 9.3 nM
Average Emax [2]: 63.4%
inhibition of AP haemolysis (in words) [3]: did not show efficacy in the AP haemolysis assay, below 10 µM; also recorded: did not show activity in the AP assay below 10 µM
effect on C3b deposition (C3b deposition): no effect on C3b deposition was detected

Reference: paper PMC7972453, “The allosteric modulation of complement C5 by knob domain peptides” (eLife, 2021)
